# Earlier results as cited in patent US20230041069A1, “ELECTROLYTE FOR ELECTROCHEMICAL GAS SENSOR AND ELECTROCHEMICAL GAS SENSOR INCLUDING THE SAME” (Samsung Electronics Co., Ltd., priority 2021, published 2023).
smiles,measurement,value
"CCn1cc[n+](C)c1.N#C[N-]C#N [compound 6, 1-Ethyl-3-methylimidazolium dicyanamide]",pKa of an anion's conjugate acid,5
